In patent US5432165A, “Methods for the treatment of infection caused by Hepatitis B virus (HBV)” (priority 1992, dated 1995):
Values joined by “and” are separate entries in the source; they are usually repeats but may differ in a detail not shown here. Equal entries are not always repeated.

Columns and labels:
[1] = Stability in an acid environment; format: physicochemical; conditions: such as is found in the human stomach
[2] = Adverse Experience Summary (Table II), HIV-infected patients; format: in vivo, human
From the text: A summary of the adverse effects experienced by some of the patients involved in the various dosage studies conducted are presented in Table II, attached hereto. Where no entry is given, no adverse experience was observed.

hepatitis B virus = assay: Oral FIAU in immune-competent patients with chronic hepatitis B: HBV DNA and HBV DNA polymerase; format: in vivo, human; conditions: for Number HBeAg-negative at latest follow-up: 6 patients with 1 month follow-up
Description: To assess the antiviral activity of FIAU against hepatitis B virus, up to 24 patients with chronic hepatitis B will be treated with oral FIAU in doses of 0.05, 0.10, 0.25 or 0.50 mg/kg-day in three divided doses daily for four weeks. Six patients, of which only three can be previous interferon failures, will be initially dosed at 0.10 mg/kg-day. Depending on tolerance and efficacy, the next six patients will be entered at 0.05 or 0.25 mg/kg-day.
This study is an open and uncontrolled evaluation of oral FIAU in the treatment of chronic hepatitis B. Up to four dose cohorts of six patients each will be sequentially studied starting at 0.10 mg/kg-day. Patients will take the medication three times per day for four weeks. Depending on efficacy and tolerance, the next dose cohort will be either 0.05 or 0.25 mg/kg-day.
Patients who meet the eligibility criteria will start on therapy, generally as outpatients one to two weeks after the in-hospital evaluation. Up to four doses will be sequentially evaluated. The initial six patients will receive 0.10 mg/kg-day for four weeks.
If tolerance is adequate at 0.10 mg/kg-day, six patients will receive 0.25 mg/kg-day for four weeks. The final six patients will receive 0.50 mg/kg-day for four weeks if needed for better efficacy and if tolerance has been adequate at the lower doses.
The FIAU will be administered by mouth in three equally divided doses daily. FIAU is provided as a 1 mg/ml syrup. Patients will be instructed on how to measure and self-administer the FIAU solution using oral dosing syringes. Dosing compliance will be monitored by measuring the residual FIAU solution returned at the weekly outpatient visit.
Activity of FIAU against hepatitis B virus will be assessed by monitoring levels of HBV DNA. An inhibition of HBV DNA activity of at least about 50% by the fourth week of treatment will be considered significant antiviral activity. The dose levels of FIAU will be compared based upon the degree of inhibition of serum levels of HBV DNA.

CMV = conditions: read-out: in vitro ED90; cited from earlier work
[3] = typical; read-out: cellular toxicity concentration (ID50); cited from earlier work
[4] = 0.1 mpk, Day 1 (initial level), individual patients 1A-6A
[5] = 0.1 mpk, Day 3, individual patients 1A-6A
[6] = 0.1 mpk, Day 8, individual patients 1A-6A
[7] = 0.1 mpk, Week 2, individual patients 1A-6A
[8] = 0.1 mpk, Week 3, individual patients 1A-6A
[9] = 0.1 mpk, Week 4, individual patients 1A-6A
[10] = 0.1 mpk, Week 5 (after 4-week treatment), individual patients 1A-6A
[11] = 0.25 mpk, Day 1 (initial level), individual patients 1B-6B
[12] = 0.25 mpk, Day 3, individual patients 1B-6B
[13] = 0.25 mpk, Day 8, individual patients 1B-6B
[14] = 0.25 mpk, Week 2, individual patients 1B-6B

## O=c1[nH]c(=O)n([C@@H]2O[C@H](CO)[C@@H](O)[C@@H]2F)cc1I [FIAU, 1-(2'-deoxy-2'-fluoro-β-D-arabinofuranosyl)-5-iodouracil]
[1]
  stability in an acid environment: stable in an acid environment
[2]; 0.1 mg/kg-day
  Incidence: ALT elevation, moderate (2.5-5.0x): 2/4
  Incidence: ALT elevation, severe (>5x): 1/4
  Incidence: AST elevation, moderate (2.5-5.0x): 2/4
  Incidence: AST elevation, severe (>5x): 1/4
  Incidence: Fatigue, moderate: 1/4
  Incidence: Hyperbilirubemia, mild: 2/4
  Incidence: Hypercalcemia, mild: 1/4
  Incidence: Hypocalcemia, mild: 1/4
  Incidence: Hypoglycemia, mild: 1/4
  Incidence: Hyponatremia, mild: 1/4
[2]; 0.5 mg/kg-day
  Incidence: ALT elevation, mild (1.25-2.5x): 3/10
  Incidence: ALT elevation, severe (>5x): 2/10
  Incidence: AST elevation, mild (1.25-2.5x): 3/10
  Incidence: AST elevation, moderate (2.5-5.0x): 1/10
  Incidence: AST elevation, severe (>5x): 2/10
  Incidence: Diarrhea, mild: 1/10
  Incidence: Disoriented, mild: 1/10
  Incidence: Fatigue, mild: 3/10
  Incidence: Fatigue, moderate: 1/10
  Incidence: Headache, mild: 2/10
  Incidence: Headache, moderate: 1/10
  Incidence: Hemauria, moderate: 1/10
  Incidence: Hypophosphatemia, moderate: 1/10
  Incidence: Nausea, mild: 3/10
  Incidence: Nausea, moderate: 1/10
  Incidence: Proteinuria, mild: 1/10
  Incidence: Stomatitis, moderate: 1/10
  Incidence: Vomiting, mild: 2/10
  Incidence: Weakness, mild: 2/10
[2]; 1.0 mg/kg-day
  Incidence: ALT elevation, mild (1.25-2.5x): 4/9
  Incidence: ALT elevation, moderate (2.5-5.0x): 1/9
  Incidence: ALT elevation, severe (>5x): 3/9
  Incidence: AST elevation, mild (1.25-2.5x): 4/9
  Incidence: AST elevation, moderate (2.5-5.0x): 1/9
  Incidence: AST elevation, severe (>5x): 3/9
  Incidence: Abdominal Cramping, moderate: 1/9
  Incidence: Constipation, mild: 1/9
  Incidence: Decreases sensations, mild: 1/9
  Incidence: Diarrhea, mild: 2/9
  Incidence: Difficulty focusing, mild: 1/9
  Incidence: Dizziness, mild: 1/9
  Incidence: Fatigue, mild: 2/9
  Incidence: Fatigue, moderate: 1/9
  Incidence: Fatigue, severe: 1/9
  Incidence: Headache, mild: 1/9
  Incidence: Headache, severe: 1/9
  Incidence: Heartbum, mild: 1/9
  Incidence: Light Stools, mild: 1/9
  Incidence: Nausea, mild: 6/9
  Incidence: Nausea, moderate: 1/9
  Incidence: Paresibesia (extremities), mild: 1/9
  Incidence: Vomiting, mild: 1/9
  Incidence: Weakness, mild: 2/9
  Incidence: Weakness, moderate: 1/9
  Incidence: myositis, severe: 1/9
Hepatitis B virus; 0.05 mpk
  mean reduction of HBV DNA serum level from initial levels at Week 4: 30%
  Number HBeAg-negative at latest follow-up: 0
Hepatitis B virus; 0.05 mpk, Day 1 (initial level), individual patients 1C, 2C
  HBV DNA Polymerase (cpm): 1,318 cpm and 3,365 cpm
Hepatitis B virus; 0.05 mpk, Day 3, individual patients 1C, 2C
  HBV DNA Polymerase (cpm): 748 cpm and 1,509 cpm
Hepatitis B virus; 0.05 mpk, Day 8, individual patients 1C, 2C
  HBV DNA Polymerase (cpm): 348 cpm and 908 cpm
Hepatitis B virus; 0.05 mpk, n = 4
  Mean % change of HBV DNA at Week 4 of FIAU: -31%
Hepatitis B virus; 0.1 mpk
  mean reduction of HBV DNA serum level from initial levels at Week 4: 88%
  Number HBeAg-negative at latest follow-up: 0
Hepatitis B virus; [4]
  HBV DNA: 68.1 pg/mL and 306.2 pg/mL and 307.7 pg/mL and 18.1 pg/mL and 71.3 pg/mL and 172.6 pg/mL
  HBV DNA Polymerase (cpm): 1208 cpm and 3340 cpm and 3,000 cpm and 1,500 cpm and 1,174 cpm
Hepatitis B virus; [5]
  HBV DNA: 23.2 pg/mL and 110.6 pg/mL and 208.7 pg/mL and 12.3 pg/mL and 27.8 pg/mL and 75.6 pg/mL
  HBV DNA Polymerase (cpm): 348 cpm and 721 cpm and 1,550 cpm and 440 cpm and 251 cpm and 610 cpm
Hepatitis B virus; [6]
  HBV DNA: 16.8 pg/mL and 100.1 pg/mL and 178.8 pg/mL and 8.8 pg/mL and 9.7 pg/mL and 27.6 pg/mL
  HBV DNA Polymerase (cpm): 119 cpm and 550 cpm and 843 cpm and 164 cpm and 145 cpm and 169 cpm
Hepatitis B virus; 0.1 mpk, Month 1 (follow-up), individual patients 1A-6A
  HBV DNA: 4.3 pg/mL and 4.8 pg/mL and 34.2 pg/mL and 4.4 pg/mL and 18.6 pg/mL and 138.5 pg/mL
Hepatitis B virus; 0.1 mpk, Month 2 (follow-up), individual patients 1A-6A
  HBV DNA: 13.8 pg/mL and 11.7 pg/mL and 58.4 pg/mL and 5.9 pg/mL and 26.1 pg/mL and 172.9 pg/mL
Hepatitis B virus; [7]
  HBV DNA: 9.3 pg/mL and 94.5 pg/mL and 223.2 pg/mL and 7.3 pg/mL and 17.9 pg/mL and 25.2 pg/mL
  HBV DNA Polymerase (cpm): 90 cpm and 507 cpm and 977 cpm and 118 cpm and 136 cpm and 142 cpm
Hepatitis B virus; [8]
  HBV DNA: 6.4 pg/mL and 42.2 pg/mL and 122.1 pg/mL and 3.2 pg/mL and 9.0 pg/mL and 22.8 pg/mL
  HBV DNA Polymerase (cpm): 144 cpm and 360 cpm and 303 cpm and 69 cpm and 86 cpm and 148 cpm
Hepatitis B virus; [9]
  HBV DNA: 0.0 pg/mL and 31.4 pg/mL and 78.3 pg/mL and 2.5 pg/mL and 7.4 pg/mL and 21.8 pg/mL
  HBV DNA Polymerase (cpm): 93 cpm and 205 cpm and 310 cpm and 74 cpm and 99 cpm and 165 cpm
Hepatitis B virus; [10]
  HBV DNA: 4.1 pg/mL and 42.4 pg/mL and 76.1 pg/mL and 8.7 pg/mL and 21.9 pg/mL and 67.9 pg/mL
  HBV DNA Polymerase (cpm): 84 cpm and 368 cpm and 657 cpm and 169 cpm and 127 cpm and 324 cpm
Hepatitis B virus; 0.1 mpk, n = 6
  Mean % change of HBV DNA at Week 4 of FIAU: -88%
Hepatitis B virus; 0.25 mpk
  mean reduction of HBV DNA serum level from initial levels at Week 4: 84%
  patients who "sero-converted" (failed to exhibit hepatitis B surface antigen): 2 of 6
  Number HBeAg-negative at latest follow-up: 2
Hepatitis B virus; [11]
  HBV DNA: 975.8 pg/mL and 63.9 pg/mL and 799.1 pg/mL and 196.3 pg/mL and 110.3 pg/mL and 141.1 pg/mL
  HBV DNA Polymerase (cpm): 43,752 cpm and 835 cpm and 10,833 cpm and 2,752 cpm and 2,454 cpm and 7,422 cpm
Hepatitis B virus; [12]
  HBV DNA: 742.7 pg/mL and 23 pg/mL and 472.3 pg/mL and 103.5 pg/mL and 40.4 pg/mL and 79.9 pg/mL
  HBV DNA Polymerase (cpm): 7,841 cpm and 182 cpm and 2,115 cpm and 1,302 cpm and 506 cpm and 1,482 cpm
Hepatitis B virus; [13]
  HBV DNA: 718.9 pg/mL and 17.5 pg/mL and 204.2 pg/mL and 47.1 pg/mL and 15.9 pg/mL and 60.7 pg/mL
  HBV DNA Polymerase (cpm): 5,129 cpm and 81 cpm and 1,481 cpm and 213 cpm and 131 cpm and 772 cpm
Hepatitis B virus; 0.25 mpk, Month 1 (follow-up), individual patients 1B-6B
  HBV DNA: 4.9 pg/mL and 23.4 pg/mL and 100.6 pg/mL and 242.5 pg/mL and 2.7 pg/mL
Hepatitis B virus; [14]
  HBV DNA: 492.9 pg/mL and 8.0 pg/mL and 182.6 pg/mL and 32.4 pg/mL and 9.3 pg/mL and 26.6 pg/mL
  HBV DNA Polymerase (cpm): 3,395 cpm and 129 cpm and 2,752 cpm and 105 cpm and 45 cpm and 260 cpm
Hepatitis B virus; 0.25 mpk, Week 3, individual patients 1B-3B
  HBV DNA Polymerase (cpm): 2,012 cpm and 63 cpm and 1,602 cpm
Hepatitis B virus; 0.25 mpk, Week 3, individual patients 1B-6B
  HBV DNA: 373.2 pg/mL and 10.6 pg/mL and 68.3 pg/mL and 31.1 pg/mL and 8.3 pg/mL and 44.2 pg/mL
Hepatitis B virus; 0.25 mpk, Week 4, individual patients 1B-3B
  HBV DNA Polymerase (cpm): 834 cpm and 42 cpm and 1,076 cpm
Hepatitis B virus; 0.25 mpk, Week 4, individual patients 1B-6B
  HBV DNA: 237.9 pg/mL and 7.2 pg/mL and 69.6 pg/mL and 34.0 pg/mL and 7.9 pg/mL and 41.7 pg/mL
Hepatitis B virus; 0.25 mpk, Week 5 (after 4-week treatment), individual patients 1B-6B
  HBV DNA: 376.3 pg/mL and 24.1 pg/mL and 6.4 pg/mL and 89.9 pg/mL and 6.8 pg/mL
Hepatitis B virus; 0.25 mpk, n = 6
  Mean % change of HBV DNA at Week 4 of FIAU: -84%
Hepatitis B virus; within the first few days, FIG. 20
  reduction of the initial HBV DNA polymerase level: 80-90%
CMV
  EC90: ~0.5 µM
[3]
  CC50: ~10 µM
